Entries after “also recorded” stand apart in the source; their conditions may differ. Ends that are not written are not given here. Peptide text beside a SMILES is read from it.
Assays:
[1] = tested on: A. baumannii ATCC 19606; experiment: NPN uptake outer membrane permeabilization assay; type: cell-based, Acinetobacter baumannii
Protocol: (§1) We next tested whether ATB peptides act primarily by disrupting the bacterial membrane, we assessed their ability to depolarize the cytoplasmic membrane and permeabilize the outer membrane of A. baumannii ATCC 19606 at their MICs using DiSC3-5 and NPN uptake assays, respectively. […] Fluorescence data were analysed in terms of both maximal signal over time and time-resolved kinetic profiles.
N-phenyl-1-napthylamine (NPN) uptake assay was used to evaluate the ability of the peptides to permeabilize the bacterial outer membrane. Inocula of A. baumannii ATCC 19606 were grown to an OD at 600 nm of 0.4 mL^−1, centrifuged (9,391 ģ at 4 °C for 10 min), washed and resuspended in 5 mmol L^−1 HEPES buffer (pH 7.4) containing 5 mmol L^−1 glucose. The bacterial solution was added to a white 96-well plate ([…] per well) together with […] of NPN at 0.5 mmol L^−1. Consequently, peptides diluted in water were added to each well, and the fluorescence was measured at lex = 350 nm and lem = 420 nm over time for 45 min. The relative fluorescence was calculated using the untreated control (buffer + bacteria + fluorescent dye) and polymyxin B (positive control) as baselines and the following equation was applied to reflect % of difference between the baselines and the sample: Percentagedifference=100*flurescencesample-flurescenceuntreatedcontrol/flurescenceuntreatedcontrol

[2] = tested on: human embryonic kidney (HEK293T) cells; conditions: 24 h
Protocol: The cells were cultured in high-glucose Dulbecco’s modified Eagle’s medium supplemented with 1% penicillin and streptomycin (antibiotics) and 10% fetal bovine serum and grown at 37 °C in a humidified atmosphere containing 5% CO2.
One day prior to the experiment, 100 μL aliquots of human embryonic kidney (HEK293T) cells, at a concentration of 50,000 cells per mL, were seeded into each well of 96-well plates (5,000 cells per well). Following cell attachment, the HEK293T cells were treated with increasing concentrations of peptides (ranging from 8 to 128 μmol L^−1) and incubated for 24 h. After the exposure period, cytotoxicity was assessed using the 3-(4,5-dimethylthiazol-2-yl)-2,5-diphenyltetrazolium bromide (MTT) assay. Specifically, the MTT reagent was prepared at a concentration of 0.5 mg mL^−1 in phenol red-free medium and used to replace the peptide-containing supernatants (100 μL per well). The plates were then incubated for 4 h at 37 °C in a humidified atmosphere with 5% CO2, facilitating the formation of insoluble formazan crystals. These crystals were subsequently dissolved in 0.04 mol L^−1 hydrochloric acid prepared in anhydrous isopropanol. Absorbance was measured at 570 nm using a spectrophotometer to quantify cell viability. All experiments were conducted in triplicate (three biological replicates).
To evaluate the safety profile of the ATB peptides, we measured their cytotoxicity against human embryonic kidney (HEK293T) cells using a 3-(4,5-dimethylthiazol-2-yl)-2,5-diphenyltetrazolium bromide (MTT) viability assay and determined half-maximal cytotoxic concentrations (CC50). […]
index as the ratio CC50 (HEK293T) / MIC against A. baumannii ATCC 19606.

[3] = tested on: A. baumannii ATCC 19606; experiment: DiSC3-5 cytoplasmic membrane depolarization assay; type: cell-based, Acinetobacter baumannii; conditions: peptides at their MICs; HEPES buffer pH 7.2, 20 mmol L^−1 glucose, 0.1 mol L^−1 KCl; 60 min; responses remained below Triton X-100; in words
Protocol: as §1
The cytoplasmic membrane depolarization assay was performed using the membrane potential-sensitive dye 3,3’-dipropylthiadicarbocyanine iodide (DiSC3-5). A. baumannii ATCC 19606 in the mid-logarithmic phase were washed and resuspended at 0.05 OD mL^−1 (optical value at 600 nm) in HEPES buffer (pH 7.2) containing 20 mmol L^−1 glucose and 0.1 mol L^−1 KCl. […] Membrane depolarization was then followed by reading changes in the fluorescence (lex = 622 nm, lem = 670 nm) over time for 60 min. The relative fluorescence was calculated using the untreated control (buffer + bacteria + fluorescent dye) and polymyxin B (positive control) as baselines and the following equation was applied to reflect % of difference between the baselines and the sample: Percentagedifference=100*flurescencesample-flurescenceuntreatedcontrol/flurescenceuntreatedcontrol

[4] = tested on: A. baumannii ATCC 19606; experiment: microbe, parasite or virus in culture; conditions: Fig. 4 heat map; broth microdilution, LB, 10[5] bacterial cells, 0–64 μmol L^−1, 37 °C, one day, OD600; mode of replicates (triplicate)
Protocol: Figure 4. […] Briefly, 10[5] bacterial cells were incubated with serially diluted peptides (0–64 μmol L^−1) at 37 °C. Bacterial growth was assessed by measuring the optical density at 600 nm in a microplate reader one day post-treatment.

[5] = peptides at their MICs, 5 mmol L^−1 HEPES pH 7.4, 5 mmol L^−1 glucose, 45 min, rank order in words relative to bacterial baseline

Molecule | outer membrane permeabilization (NPN fluorescence response) [1, 5] | half-maximal cytotoxic concentration (CC50) [2] [µM] | other results
CC[C@H](C)CCCCC(=O)N[C@@H](CCN)C(=O)N[C@H](C(=O)N[C@@H](CCN)C(=O)N[C@H]1CCNC(=O)[C@H]([C@@H](C)O)NC(=O)[C@H](CCN)NC(=O)[C@H](CCN)NC(=O)[C@H](CC(C)C)NC(=O)[C@@H](Cc2ccccc2)NC(=O)[C@H](CCN)NC1=O)[C@@H](C)O [Polymyxin B, reference compound] (HELM PEPTIDE1{[CC[C@H](C)CCCCC(=O)[*:2]].[Dab].T.[Dab].[Dab].[Dab].[dF].L.[Dab].[Dab].T}$PEPTIDE1,PEPTIDE1,5:R3-11:R2$$$V2.0; N-terminus assumed; bridges inferred) | – | – | outer membrane permeabilization (NPN fluorescence response) ([1]; pH 7.4): remained at or near baseline
MFKTNLSRVSVKRLLIWVVWWLRLKKLKKKAKKFRKK-OH [ATB60] | strong outer-membrane permeabilization; also recorded: largest NPN responses | 9 to 12 | cytoplasmic membrane depolarization signal (DiSC3-5 fluorescence) [3]: larger depolarization signals
MIKVSKLVVAKKLNLRKKLKKYLKKPKLGKILLL-OH [ATB12] | – | 20 to 100 | –
MIMATKLIKKNKFAKELFSRKYKPRVIKPKKGKGSFKRKKR-OH [ATB99] | largest NPN responses | – | –
MKILKKNMHNKILPMVSHKKWMMLIKRLKTLGRIKK-OH [ATB56] | – | 20 to 100 | –
MKKLIRNIIYSKLKFLWRWHRPLIIQRRNL-OH [ATB65] | strong outer-membrane permeabilization; also recorded: largest NPN responses | 5 to 6 | cytoplasmic membrane depolarization signal (DiSC3-5 fluorescence) [3]: larger depolarization signals
MKKLKIKKLKIKKLKIKKLKIKKLKSGLRSQ-OH [ATB2] | only minor NPN increases | – | –
MKLKKLIKFFAFAKGISLLSRRPVRKRTGGLLKKYLAWKYLRRR-OH [ATB6] | – | 20 to 100 | –
MLGRKGLRSVWNGRLNVRKRRQNVRLRKNVRRKNVPKPSVWLI-OH [ATB39] | – | 20 to 100 | cytoplasmic membrane depolarization signal (DiSC3-5 fluorescence) [3]: larger depolarization signals
MLKGLKKFKWLKKLKRRLMELNELKKFKKLMELRS-OH [ATB13] | – | 9 to 12 | –
MLKLLKKLQMHLLKKLQKEKLLLNLQKKTLKRKRFRHA-OH [ATB61] | largest NPN responses | 20 to 100 | –
MLKLLSIKLKSKKKILRMTLTKLNKWLKTKKKWLRNLKTM-OH [ATB5] | only minor NPN increases | 9 to 12 | Minimal Inhibitory Concentration, A. baumannii ATCC 19606 (-) [4]: 1 µmol/L
MNKIILRVKKMLKNIKLKNNGIRKYNVKMEVKLVYFK-OH [ATB63] | largest NPN responses | – | cytoplasmic membrane depolarization signal (DiSC3-5 fluorescence) [3]: larger depolarization signals
MRIKLHLRLAFLRFRKKKSLSRLKPISKIRSK-OH [ATB76] | strong outer-membrane permeabilization; also recorded: largest NPN responses | 9 to 12 | –
MRSLKRQLLKHKAVKLSIKKWQFLRKLKLVPKRH-OH [ATB18] | – | 9 to 12 | –
MSLKKIAKLLANKKVRKIAWMLISHPKFIKMLKNSIKRR-OH [ATB55] | – | 5 to 6 | –
MSLRKKLFVKTMLRVKIKKQSKQRLQKTKRLLQKLKRPWM-OH [ATB3] | – | 20 to 100 | –
MTKHAIAAKSLLKKWIISRPLNMKKKSSPFQKIRKMFKRFFK-OH [ATB25] | – | 5 to 6 | –
MTKLKMYLKKVRKNANNSTKQWKYGLPVRNAKLWNNFQPKK-OH [ATB51] | – | 20 to 100 | –
